For assay [1], the system named is eyelash. Briefly: Eyelash change from baseline evaluated by photographs in clinical studies. It counts as in vivo, patients. The following applies: for Percent of Patients with Eyelash Change: Table 3; for Percent of Patients with Eyelash Change: Change Reported / Percent of Patients with Eyelash Change: Color Change / Percent of Patients with Eyelash Change: Density Change / Percent of Patients with Eyelash Change: Length Change / Percent of Patients with Eyelash Change: Thickness Change: Table 4; for change in eyelash color, length, density and/or thickness (in words): Travoprost 0.0015% and 0.004%, latanoprost 0.005% compared to travoprost. The text has this: Eyelash photographs of each eye were taken at determination of patient eligibility […] (baseline) and Months 1.5, 3, 4.5 and 6 in four clinical studies. Additional photographs were taken at Months 9 and 12 in two clinical studies. Eyelash change was classified using the following categories: change in eyelash color, increase in eyelash length, increase in eyelash density and increase in eyelash thickness. Two independent readers evaluated the photographs subjectively for any change from baseline in eyelash characteristics.

Assay [2] deals with eyelash. The following applies: in some instances, U.S. Pat. No. 6,262,105; cited from earlier work.
In another assay the target is T1, FP receptors (Bos taurus, UniProt P37289).
T1 construct: Washed total particulate bovine corpus luteum membranes; from tissue; host or cells: bovine corpus luteum membranes
T1 sequence (P37289 whole entry): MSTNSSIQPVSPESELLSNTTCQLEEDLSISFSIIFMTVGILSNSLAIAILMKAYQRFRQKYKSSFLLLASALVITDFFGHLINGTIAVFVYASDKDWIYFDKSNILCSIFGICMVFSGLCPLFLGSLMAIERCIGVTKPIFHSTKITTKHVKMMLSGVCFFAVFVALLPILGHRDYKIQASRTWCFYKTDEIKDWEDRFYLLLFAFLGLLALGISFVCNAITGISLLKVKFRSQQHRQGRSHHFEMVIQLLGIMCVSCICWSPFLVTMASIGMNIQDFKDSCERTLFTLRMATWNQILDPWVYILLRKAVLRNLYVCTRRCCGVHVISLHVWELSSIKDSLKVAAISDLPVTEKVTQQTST
Briefly: FP receptor binding assay ([3H]PGF2α, bovine corpus luteum membranes). The following applies: for IC50: Table 1, [3H]PGF2α, bovine corpus luteum membranes, free acid form; for Ki: Table 2, FP receptor binding. As for the experimental part: Non-specific binding was defined with 1-10 μM unlabeled PGF2α or fluprostenol. The assays were terminated by vacuum filtration (using Whatman GF/B glass fiber filter previously soaked in 0.3% polyethyleneimine) and the data analyzed by a non-linear, iterative, curve-fitting computer program.

For assay [3], the target named is T2, FP receptors (Swiss 3T3 cells expressing FP receptors) (Mus musculus, UniProt P43117).
T2 construct: endogenous in cells; host or cells: Swiss 3T3 cells
T2 sequence (P43117 whole entry): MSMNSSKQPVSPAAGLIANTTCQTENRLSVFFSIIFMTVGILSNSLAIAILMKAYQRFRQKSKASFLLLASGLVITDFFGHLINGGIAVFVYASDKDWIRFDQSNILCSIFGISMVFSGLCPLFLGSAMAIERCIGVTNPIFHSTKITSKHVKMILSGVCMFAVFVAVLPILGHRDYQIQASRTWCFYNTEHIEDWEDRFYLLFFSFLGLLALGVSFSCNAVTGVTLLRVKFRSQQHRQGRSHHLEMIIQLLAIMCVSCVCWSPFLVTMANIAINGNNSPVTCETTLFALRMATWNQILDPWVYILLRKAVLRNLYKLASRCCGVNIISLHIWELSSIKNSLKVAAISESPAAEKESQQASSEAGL
Briefly: FP receptor-mediated phosphoinositide turnover assay. The following applies: for Emax: Swiss-3T3, 1 h, efficacy relative to standard full agonist (100%), read-out: FP functional (%) agonistic activity; for EC50: [3H]-IPs in Swiss 3T3 cells; for % response: efficacy relative to standard. The format is cell-based. As to the method: FP receptor-mediated phosphoinositide turnover assay: [^3H]Inositol phosphates ([^3H]-IPs) produced by agonist-mediated activation of phospholipase C in Swiss 3T3 cells expressing FP receptors were quantified as follows. Confluent 3T3 cells were exposed to 1.0-1.5 μCi [^3H]-myo-inositol (18.3 Ci/mmol) in 0.5 ml DMEM for 24-30 hours at 37° C. Then cells were rinsed once with DMEM/F-12 containing 10 mM LiCl, and the agonist stimulation experiment was performed in 0.5 ml of the same medium to facilitate accumulation of [^3H]-IPs. Cells were exposed to the agonist or solvent for 60 min at 37° C. (triplicate determinations), followed by aspiration of the medium and immediate addition of 1 ml of ice-cold 0.1 M formic acid. The plates were kept cold and then frozen. Samples frozen up to one week were thawed prior to chromatographic separation of radiolabeled components. The cell lysates (0.9 ml) were loaded on columns packed with approximately 1 ml AG 1-X8 anion exchange resin. The elution procedure consisted of a wash with 10 ml of H2O, then 8 ml of 50 mM ammonium formate, and finally 4 ml of 1.2 M ammonium formate with 0.1 M formic acid, which was collected in a scintillation vial. To this eluate was added 15 ml of scintillation fluid and the total [^3H]-IPs determined by scintillation counting on a beta-counter. Data were analyzed by the sigmoidal fit function of the Origin Scientific Graphics software (Microcal Software, Northampton, Mass.) to determine agonist potency (EC50 value) and efficacy, relative to the standard cloprostenol.

Setting [4] is: Table 1, read-out: FP functional EC50.

Where two headings read alike, the source gives them in different places. Some results are limits rather than exact numbers.

Regarding `CC(C)OC(=O)CCC/C=C\C[C@@H]1[C@@H](/C=C/[C@@H](O)COc2cccc(C(F)(F)F)c2)[C@H](O)C[C@@H]1O` [Travoprost], in the assay with eyelash [1] (0.0015%), the “Percent of Patients with Eyelash Change” value amounted to 48.1%, the “Percent of Patients with Eyelash Change: Change Reported” value (shortened to “Percent of Patients … Change Reported”) is listed as 48.1%, the “Percent of Patients with Eyelash Change: Color Change” value (“Percent of Patients … Color Change” for short) was 37.3% and the “Percent of Patients with Eyelash Change: Density Change” value (“Percent of Patients … Density Change” for short) is 44.6%. Besides, in the assay with eyelash [1] (0.0015%), the “Percent of Patients with Eyelash Change: Length Change” value (shortened to “Percent of Patients … Length Change”) is on record as 48.1% and the “Percent of Patients with Eyelash Change: Thickness Change” value (shortened to “Percent of Patients … Thickness Change”) amounted to 33.8%. Also, in the assay with eyelash [1] (0.004%), the “Percent of Patients with Eyelash Change” value was determined as 61.3%, the “Percent of Patients … Change Reported” value is given as 61.3%, the “Percent of Patients … Color Change” value was 47.9% and the “Percent of Patients … Density Change” value stood at 58.2%. Also, in the assay with eyelash [1] (0.004%), the “Percent of Patients … Length Change” value was 61.1% and the “Percent of Patients … Thickness Change” value is recorded as 51.1%. The “change in eyelash color, length, density and/or thickness (in words)” value in the assay with eyelash [1] is “concentration-related change”.

In the case of `CC(C)OC(=O)CCC/C=C\C[C@@H]1[C@@H](CC[C@@H](O)CCc2ccccc2)[C@H](O)C[C@@H]1O` [Latanoprost], in the assay with eyelash [1] (0.005%), the “Percent of Patients with Eyelash Change” value is listed as 25.8%, the “Percent of Patients … Change Reported” value is on record as 25.8%, the “Percent of Patients … Color Change” value worked out at 16.5% and the “Percent of Patients … Density Change” value stood at 22.2%. Moreover, in the assay on eyelash [1] (0.005%), the “Percent of Patients … Length Change” value is recorded as 25.8% and the “Percent of Patients … Thickness Change” value amounted to 17.5%. In addition, in the assay with eyelash [1], the “change in eyelash color, length, density and/or thickness (in words)” value is given as “greatly reduced frequency”. The “eyelash growth in glaucoma patients (in words)” value with eyelash [2] was “increased eyelash growth”.

In turn, `O=C(O)CCC/C=C\C[C@@H]1[C@@H](/C=C/[C@@H](F)COc2cccc(C(F)(F)F)c2)[C@H](O)C[C@@H]1O` [Compound 75] displayed an IC50 at FP receptors of 160 nM. The Emax in assay [3] (Table 1) turned out to be 83%. Further, in assay [3] (setting [4]), the EC50 came to 11.1 nM.

Consider `O=C(O)CC/C=C\CC[C@H]1[C@@H](O)CO[C@@H]1/C=C/[C@@H](O)COc1cccc(C(F)(F)F)c1` [Compound 53], for which the IC50 on FP receptors stood at 350 nM. In addition, the Emax in assay [3] (Table 1) was found to be 92%. The EC50 in assay [3] (setting [4]) was determined as 96 nM.

In turn, `O=C(O)CCC/C=C\C[C@@H]1[C@@H](OC[C@H](O)COc2cccc(Cl)c2)[C@H](O)C[C@@H]1O` [Compound 66] returned an IC50 at FP receptors of 4340 nM. Further, the Emax in assay [3] (Table 1) was 56%. For the same compound, the EC50 in assay [3] (setting [4]) came to 503 nM.

`O=C(O)CCC/C=C\C[C@@H]1C(C#C[C@@H](O)COc2cccc(Cl)c2)OC[C@@H]1O` (some centres unmarked) [Compound 39]: the IC50 at FP receptors came to 5100 nM. Moreover, in assay [3] (Table 1), the Emax was found to be 100%. Besides, the EC50 in assay [3] (setting [4]) came to 509 nM.

With `O=C(O)CCC/C=C\C[C@@H]1C(C#C[C@H](O)COc2cccc(Cl)c2)OC[C@@H]1O` (some centres unmarked) [Compound 38], the IC50 at FP receptors turned out to be 36000 nM. The concentration for a half-maximal effect (EC50) in assay [3] (setting [4]) was above 10000 nM.

`O=C(O)CCC/C=C\C[C@@H]1[C@@H](/C=C/[C@@H](F)COc2ccccc2)[C@H](O)C[C@@H]1O` [Compound 57]: the IC50 on FP receptors stood at 267 nM. Further, the Emax in assay [3] (Table 1) was 104%. For the same compound, the EC50 in assay [3] (setting [4]) came out at 3.8 nM.

As to `O=C(O)CCCCCC[C@@H]1[C@@H](/C=C/[C@@H](O)COc2cccc(Cl)c2)[C@H](O)C[C@@H]1O` [Compound 86], the Ki on FP receptors worked out at 93 nM. Further, the EC50 in assay [3] (Table 2, read-out: EC50) came to 4.92 nM. For the same compound, the “% response” value in assay [3] (Table 2) was 100%.

For the compound `O=C(O)CCC/C=C\C[C@H]1[C@@H](O)CO[C@@H]1/C=C/[C@H](O)COc1cccc(Cl)c1` [Compound 14], the 50% inhibitory concentration (IC50) on FP receptors was 7300 nM. The Emax in assay [3] (Table 1) came out at 67%. The EC50 in assay [3] (setting [4]) turned out to be 194 nM.

As for `O=C(O)CC/C=C\CC[C@H]1[C@@H](O)CO[C@@H]1/C=C/[C@@H](O)COc1ccccc1` [Compound 52], the IC50 on FP receptors came out at 330 nM. The Emax in assay [3] (Table 1) turned out to be 83%. Also, the half-maximal effective concentration (EC50) in assay [3] (setting [4]) was 57 nM.

For `O=C(O)CCC/C=C\C[C@H]1[C@@H](O)CO[C@@H]1/C=C/[C@H](O)COc1ccccc1` [Compound 32], at FP receptors, the 50% inhibitory concentration (IC50) is 573 nM. In assay [3] (Table 1), the Emax was 100%. Besides, the EC50 in assay [3] (setting [4]) was found to be 48.6 nM.

For the compound `O=C(O)CCC/C=C\C[C@@H]1[C@@H](/C=C/[C@@H](O)COc2cccc(Cl)c2)[C@H](O)C[C@@H]1O` [Compound 81], the Ki on FP receptors is 91 nM. Also, the EC50 in assay [3] (Table 2, read-out: EC50) amounted to 1.4 nM. The “% response” value in assay [3] (Table 2) was determined as 100%.

Values taken from patent US20030199590A1, “Prostaglandin analogues for promotion of hair growth” (priority 2002, published 2003).
